Assay results taken from the NIST ThermoML archive (doi:10.1016/j.tca.2014.03.004).

Experiment: mn = molality of the nth substance listed, in mol/kg
Conditions: 101.3 kPa, Liquid; for speed of sound: Sing-around technique in a fixed-path interferometer; for mass density: Vibrating tube method

N[C@@H](CCC(=O)O)C(=O)O [L-glutamic acid] + O
Conditions | mass density, m1 = 0.01 [kg/m3] | mass density, m1 = 0.02 [kg/m3] | mass density, m1 = 0.03 [kg/m3] | mass density, m1 = 0.04 [kg/m3] | mass density, m1 = 0.05 [kg/m3] | speed of sound, m1 = 0.01 [m/s] | speed of sound, m1 = 0.02 [m/s] | speed of sound, m1 = 0.03 [m/s] | speed of sound, m1 = 0.04 [m/s] | speed of sound, m1 = 0.05 [m/s]
298.15 K | 997.642 | 998.213 | 998.786 | 999.352 | 999.936 | 1497.4 | 1498.1 | 1498.9 | 1499.6 | 1500.3
308.15 K | 994.598 | 995.178 | 995.742 | 996.302 | 996.73 | 1520.4 | 1521 | 1521.8 | 1522.3 | 1523.2
318.15 K | 990.784 | 991.318 | 991.875 | 992.445 | 993.001 | 1537 | 1537.7 | 1538.1 | 1539 | 1539.3

N[C@@H](Cc1ccc(O)cc1)C(=O)O [3-(p-hydroxyphenyl)-L-alanine] + O
Conditions | mass density, 298.15 K [kg/m3] | mass density, 308.15 K [kg/m3] | mass density, 318.15 K [kg/m3] | speed of sound, 298.15 K [m/s] | speed of sound, 308.15 K [m/s] | speed of sound, 318.15 K [m/s]
m1 = 0.000125 | 997.061 | 994.051 | 990.231 | 1496.6 | 1519.6 | 1536.3
m1 = 0.00025 | 997.068 | 994.058 | 990.238 | 1496.8 | 1519.7 | 1536.5
m1 = 0.0005 | 997.082 | 994.072 | 990.251 | 1496.7 | 1519.8 | 1536.3
m1 = 0.001 | 997.112 | 994.101 | 990.278 | 1497.2 | 1519.7 | 1536.8
m1 = 0.00125 | 997.125 | 994.114 | 990.29 | 1496.8 | 1520.2 | 1536.4
m1 = 0.0015 | 997.138 | 994.126 | 990.301 | 1496.8 | 1519.8 | 1536.4
m1 = 0.002 | 997.168 | 994.152 | 990.318 | 1496.8 | 1519.8 | 1536.5
